This is an account of results in patent US11072607B2, “Inhibitors of RIP1 kinase and methods of use thereof” (priority 2016, dated 2021).

pKi: −log10 of the molar value.

In the assay the target is human RIP1 kinase domain (2-375) (Homo sapiens (Human), UniProt Q13546). The experiment in a line: RIP1 kinase inhibition assay (biochemical, Transcreener ADP assay). Conditions: tight-binding apparent inhibition constant (Ki app, Morrison equation); 50 nM enzyme, 50 uM ATP, 2 hours incubation, fluorescence polarization; read-out: RIP1 Ki. How it is done:
Example 45: RIP1 Kinase Inhibition Assays (Biochemical Assay)
The compounds of the present invention were tested for their capacity to inhibit RIP1K activity as described below.
The ability of the receptor interacting protein kinase (RIPK1) to catalyze the hydrolysis of adenosine-5′-triphosphate (ATP) is monitored using the Transcreener ADP (adenosine-5′-diphosphate) assay (BellBrook Labs). Purified human RIP1 kinase domain (2-375) (50 nM) derived from a baculovirus-infected insect cell expression system is incubated with test compounds for 2 hours in 50 mM Hepes buffer (pH 7.5) containing 30 mM MgCl2, 1 mM dithiothreitol, 50 uM ATP, 0.002% Brij-35, and 0.5% dimethyl sulfoxide (DMSO). Reactions are quenched by the addition of 1× Bell Brooks Stop buffer B (20 mM Hepes (ph 7.5), 40 mM ethylenediaminetetraacetic acid and 0.02% Brij-35) containing an additional 12 mM EDTA and 55 ug/mL ADP2 antibody and 4 nM ADP-AlexaFluor® 633 tracer. The tracer bound to the antibody is displaced by the ADP generated during the RIP1K reaction, which causes a decrease in fluorescence polarization that is measured by laser excitation at 633 nm with a FP microplate reader M1000. Fractional activity was plotted against test article concentration. Using Genedata Screener software (Genedata; Basel, Switzerland), the data were fit to the tight-binding apparent inhibition constant (Ki^app) Morrison equation [Williams, J. W. and Morrison, J. F. (1979) The kinetics of reversible tight-binding inhibition. Methods Enzymol 63: 437-67]. The following equation was used to calculate fractional activity and Ki^app: […]
where [E]T and [I]T are the total concentrations of active enzyme and test article, respectively. […]
On the technique in general: In fluorescence polarisation assays a small probe gives low polarisation when free and higher when bound to something large.

Chain of human RIP1 kinase domain (2-375) (Q13546 2-375): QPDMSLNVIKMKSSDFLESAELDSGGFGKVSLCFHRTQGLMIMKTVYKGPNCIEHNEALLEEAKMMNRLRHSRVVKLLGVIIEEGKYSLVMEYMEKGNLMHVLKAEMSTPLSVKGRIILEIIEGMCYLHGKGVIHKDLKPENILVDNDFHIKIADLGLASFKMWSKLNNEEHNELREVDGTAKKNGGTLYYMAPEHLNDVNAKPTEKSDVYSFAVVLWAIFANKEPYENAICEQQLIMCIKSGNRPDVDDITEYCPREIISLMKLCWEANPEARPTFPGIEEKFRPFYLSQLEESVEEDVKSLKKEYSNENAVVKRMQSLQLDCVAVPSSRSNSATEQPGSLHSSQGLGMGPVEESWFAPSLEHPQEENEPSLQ

For `CN1C(=O)[C@@H](NC(=O)c2ncn(Cc3ccccc3)n2)CCn2nc(CC3CCOC3)cc21` (stereo partly drawn) [Example #19, 1-benzyl-N-[(6S)-4-methyl-5-oxo-2-(tetrahydrofuran-3-ylmethyl)-7,8-dihydro-6H-pyrazolo[1,5-a][1,3]diazepin-6-yl]-1,2,4-triazole-3-carboxamide], the pKi (usually −log10 of the Ki, conventionally taken in molar units) was 7.80. Consider `O=C(N[C@H]1CCc2cc(F)cc(F)c2NC1=O)c1nc2n(n1)C(c1ccccc1)CC2(F)F` (stereo partly drawn) [Example #24, 7,7-difluoro-5-phenyl-N-[(3S)-7,9-difluoro-2-oxo-1,3,4,5-tetrahydro-1-benzazepin-3-yl]-5,6-dihydropyrrolo[1,2-b][1,2,4]triazole-2-carboxamide], for which the pKi is 7.66. Regarding `CN1C(=O)[C@@H](NC(=O)c2nc3n(n2)C(c2ccccc2)CC3(F)F)COc2ccccc21` (stereo partly drawn) [Example #25, 7,7-difluoro-5-phenyl-N-[(3S)-5-methyl-4-oxo-2,3-dihydro-1,5-benzoxazepin-3-yl]-5,6-dihydropyrrolo[1,2-b][1,2,4]triazole-2-carboxamide], the pKi is 7.48.

On to `CN1C(=O)[C@@H](NC(=O)c2nc3n(n2)C(c2ccccc2)CC3F)CCn2nccc21` (stereo partly drawn) [Example #26, 7-fluoro-5-phenyl-N-[(6S)-4-methyl-5-oxo-7,8-dihydro-6H-pyrazolo[1,5-a][1,3]diazepin-6-yl]-6,7-dihydro-5H-pyrrolo[1,2-b][1,2,4]triazole-2-carboxamide], for which the negative-log Ki (pKi) is 7.31. On to `O=C(N[C@H]1CCc2cc(F)cc(F)c2NC1=O)c1nc2n(n1)C(c1ccccc1)CC2F` (stereo partly drawn) [Example #27, 7-fluoro-5-phenyl-N-[(3S)-7,9-difluoro-2-oxo-1,3,4,5-tetrahydro-1-benzazepin-3-yl]-6,7-dihydro-5H-pyrrolo[1,2-b][1,2,4]triazole-2-carboxamide], for which the pKi was 7.85.

For the molecule `CN1C(=O)[C@@H](NC(=O)c2nc3n(n2)C(c2ccccc2)CC3F)COc2ccccc21` (stereo partly drawn) [Example #28, 7-fluoro-5-phenyl-N-[(3S)-5-methyl-4-oxo-2,3-dihydro-1,5-benzoxazepin-3-yl]-6,7-dihydro-5H-pyrrolo[1,2-b][1,2,4]triazole-2-carboxamide], the pKi is 7.92.
